Experimental data taken from the supplement of paper PMC10307832.

Tests used:
Experiment in all cases: relative viability (nuclei count vs DMSO), 5 days (fraction); higher = more cells survive
EMC-BAC-2 = tested on: EMC-BAC-2
Outline: (§1)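 Lung cancer cell lines were pin-tool dosed in 1536-well plates on the day after seeding, with either a lone drug or a fixed anchor-drug dose plus five library-drug doses (not always all listed) in √10 steps. Nuclei were counted on 4× images after 5 days. Relative viability is the ratio of treated-well to vehicle-well nuclei counts, with each value a median of duplicate plates.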

NCI-H1563 = tested on: NCI-H1563
Outline: as §1

NCI-H1395 = tested on: NCI-H1395
Outline: as §1

NCI-H2170 = tested on: NCI-H2170
Outline: as §1

A549 = tested on: A549
Outline: as §1

IA-LM = tested on: IA-LM
Outline: as §1

NCI-H1299 = tested on: NCI-H1299
Outline: as §1

EBC-1 = tested on: EBC-1
Outline: as §1

NCI-H1703 = tested on: NCI-H1703
Outline: as §1

Calu-6 = tested on: Calu-6
Outline: as §1

For `C=C1C(=O)O[C@@H](CCCCCCCC)[C@@H]1C(=O)O` [C-75] + Nc1nc2[nH]cc(CCc3ccc(C(=O)N[C@@H](CCC(=O)O)C(=O)O)cc3)c2c(=O)[nH]1 [Pemetrexed] (partner 0.2 µM), the relative viability (EMC-BAC-2; first compound 0.08 µM) was 0.438, the relative viability (EMC-BAC-2; first compound 0.253 µM) was 0.432 and the relative viability (EMC-BAC-2; first compound 0.8 µM) was 0.469. For the same compound, the relative viability (EMC-BAC-2; first compound 2.53 µM) was 0.328, the relative viability (EMC-BAC-2; first compound 8 µM) was 0.426 and the relative viability (NCI-H1563; first compound 0.08 µM) was 0.8. The relative viability (NCI-H1563; first compound 0.253 µM) was 0.915, the relative viability (NCI-H1563; first compound 0.8 µM) was 0.753 and the relative viability (NCI-H1563; first compound 2.53 µM) was 0.666. For the same compound, the relative viability (NCI-H1563; first compound 8 µM) was 0.924, the relative viability (NCI-H1395; first compound 0.08 µM) was 0.881 and the relative viability (NCI-H1395; first compound 0.253 µM) was 0.807. For the same compound, the relative viability (NCI-H1395; first compound 2.53 µM) was 0.758, the relative viability (NCI-H1395; first compound 8 µM) was 0.914 and the relative viability (NCI-H2170; first compound 0.08 µM) was 0.244. The relative viability (NCI-H2170; first compound 0.253 µM) was 0.271, the relative viability (NCI-H2170; first compound 0.8 µM) was 0.286 and the relative viability (NCI-H2170; first compound 2.53 µM) was 0.266. It also gave a relative viability (NCI-H2170; first compound 8 µM) of 0.282.

With `C=C1C(=O)O[C@@H](CCCCCCCC)[C@@H]1C(=O)O` [C-75] + Nc1ncn([C@H]2C[C@H](O)[C@@H](CO)O2)c(=O)n1 [Decitabine] (partner 2 µM) the relative viability (EMC-BAC-2; first compound 0.08 µM) was 1.02, the relative viability (EMC-BAC-2; first compound 0.253 µM) was 0.984 and the relative viability (EMC-BAC-2; first compound 0.8 µM) was 0.983. For the same compound, the relative viability (EMC-BAC-2; first compound 2.53 µM) was 0.834, the relative viability (EMC-BAC-2; first compound 8 µM) was 0.947 and the relative viability (A549; first compound 0.08 µM) was 0.27. For the same compound, the relative viability (A549; first compound 0.253 µM) was 0.255, the relative viability (A549; first compound 0.8 µM) was 0.273 and the relative viability (A549; first compound 2.53 µM) was 0.35. It also gave a relative viability (A549; first compound 8 µM) of 0.215, a relative viability (NCI-H1395; first compound 0.08 µM) of 0.74 and a relative viability (NCI-H1395; first compound 0.253 µM) of 0.674. For the same compound, the relative viability (NCI-H1395; first compound 2.53 µM) was 0.667, the relative viability (NCI-H1395; first compound 8 µM) was 0.69 and the relative viability (NCI-H2170; first compound 0.08 µM) was 0.479. It also gave a relative viability (NCI-H2170; first compound 0.253 µM) of 0.505, a relative viability (NCI-H2170; first compound 0.8 µM) of 0.449 and a relative viability (NCI-H2170; first compound 2.53 µM) of 0.422. The relative viability (NCI-H2170; first compound 8 µM) was 0.401.

`C=C1C(=O)O[C@@H](CCCCCCCC)[C@@H]1C(=O)O` [C-75] + O=C(CCCCCCC(=O)Nc1ccccc1)NO [Vorinostat] (partner 1 µM) was tested, and the relative viability (IA-LM; first compound 0.08 µM) was 0.886, the relative viability (IA-LM; first compound 0.253 µM) was 1.35 and the relative viability (IA-LM; first compound 0.8 µM) was 0.935. It also gave a relative viability (IA-LM; first compound 2.53 µM) of 1.25, a relative viability (IA-LM; first compound 8 µM) of 0.8 and a relative viability (EMC-BAC-2; first compound 0.08 µM) of 0.462. The relative viability (EMC-BAC-2; first compound 0.253 µM) was 0.407, the relative viability (EMC-BAC-2; first compound 0.8 µM) was 0.276 and the relative viability (EMC-BAC-2; first compound 2.53 µM) was 0.355. It also gave a relative viability (EMC-BAC-2; first compound 8 µM) of 0.378, a relative viability (NCI-H1395; first compound 0.08 µM) of 0.649 and a relative viability (NCI-H1395; first compound 0.253 µM) of 0.768. It also gave a relative viability (NCI-H1395; first compound 2.53 µM) of 0.634, a relative viability (NCI-H1395; first compound 8 µM) of 0.711 and a relative viability (NCI-H2170; first compound 0.08 µM) of 0.803. For the same compound, the relative viability (NCI-H2170; first compound 0.253 µM) was 0.961, the relative viability (NCI-H2170; first compound 0.8 µM) was 0.714 and the relative viability (NCI-H2170; first compound 2.53 µM) was 0.697. The relative viability (NCI-H2170; first compound 8 µM) was 0.808.

Work on `C=C1C(=O)O[C@@H](CCCCCCCC)[C@@H]1C(=O)O` [C-75] + O=C(c1cc(Cc2n[nH]c(=O)c3ccccc23)ccc1F)N1CCN(C(=O)C2CC2)CC1 [Olaparib] (partner 8 µM) yielded a relative viability (IA-LM; first compound 0.08 µM) of 0.803, a relative viability (IA-LM; first compound 0.253 µM) of 0.885 and a relative viability (IA-LM; first compound 0.8 µM) of 0.788. For the same compound, the relative viability (IA-LM; first compound 2.53 µM) was 0.761, the relative viability (IA-LM; first compound 8 µM) was 0.767 and the relative viability (NCI-H1299; first compound 0.08 µM) was 0.946. For the same compound, the relative viability (NCI-H1299; first compound 0.253 µM) was 0.976, the relative viability (NCI-H1299; first compound 0.8 µM) was 0.974 and the relative viability (NCI-H1299; first compound 2.53 µM) was 0.93. For the same compound, the relative viability (NCI-H1299; first compound 8 µM) was 0.924, the relative viability (EMC-BAC-2; first compound 0.08 µM) was 0.506 and the relative viability (EMC-BAC-2; first compound 0.253 µM) was 0.464. The relative viability (EMC-BAC-2; first compound 0.8 µM) was 0.475, the relative viability (EMC-BAC-2; first compound 2.53 µM) was 0.389 and the relative viability (EMC-BAC-2; first compound 8 µM) was 0.389. The relative viability (A549; first compound 0.08 µM) was 0.394, the relative viability (A549; first compound 0.253 µM) was 0.497 and the relative viability (A549; first compound 0.8 µM) was 0.216. For the same compound, the relative viability (A549; first compound 2.53 µM) was 0.128, the relative viability (A549; first compound 8 µM) was 0.251 and the relative viability (NCI-H1395; first compound 0.08 µM) was 0.423. For the same compound, the relative viability (NCI-H1395; first compound 0.253 µM) was 0.433, the relative viability (NCI-H1395; first compound 2.53 µM) was 0.465 and the relative viability (NCI-H1395; first compound 8 µM) was 0.511. The relative viability (NCI-H2170; first compound 0.08 µM) was 0.594, the relative viability (NCI-H2170; first compound 0.253 µM) was 0.633 and the relative viability (NCI-H2170; first compound 0.8 µM) was 0.541. The relative viability (NCI-H2170; first compound 2.53 µM) was 0.647, the relative viability (NCI-H2170; first compound 8 µM) was 0.627 and the relative viability (EBC-1; first compound 0.08 µM) was 0.62. The relative viability (EBC-1; first compound 0.253 µM) was 0.807, the relative viability (EBC-1; first compound 0.8 µM) was 0.692 and the relative viability (EBC-1; first compound 2.53 µM) was 0.613. For the same compound, the relative viability (EBC-1; first compound 8 µM) was 0.536, the relative viability (NCI-H1703; first compound 0.08 µM) was 0.416 and the relative viability (NCI-H1703; first compound 0.253 µM) was 0.391. For the same compound, the relative viability (NCI-H1703; first compound 0.8 µM) was 0.348, the relative viability (NCI-H1703; first compound 2.53 µM) was 0.441 and the relative viability (NCI-H1703; first compound 8 µM) was 0.432. It also gave a relative viability (Calu-6; first compound 0.08 µM) of 0.558, a relative viability (Calu-6; first compound 0.253 µM) of 0.576 and a relative viability (Calu-6; first compound 0.8 µM) of 0.522. For the same compound, the relative viability (Calu-6; first compound 2.53 µM) was 0.489 and the relative viability (Calu-6; first compound 8 µM) was 0.469.
